Experimental data as given in patent US9962383B2, “Compounds, compositions and methods of agelastatin alkaloids” (Massachusetts Institute of Technology, priority 2013, dated 2018).
Entries after “also recorded” stand apart in the source; their conditions may differ. Like-named read-outs stand apart in the source and are kept apart here.

What was measured:
U-937 = test: 48-hour IC50 by MTS, U-937 lymphoma cells; type: cell-based, human
Experimental: (§1) Cells were grown in media supplemented with fetal bovine serum (FBS) and antibiotics (100 μg/mL penicillin and 100 U/mL streptomycin). […] Cells were incubated at 37° C. in a 5% CO2, 95% humidity atmosphere.
(§2) In a 96-well plate, compounds were pre-added as DMSO stocks (1% final) in triplicate to achieve final concentrations of 1 nM to 10 μM on a half log scale. DMSO and cell-free wells served as the live and dead control, respectively. […] IC50 values were determined from three or more independent experiments using TableCurve (San Jose, Calif.).

CEM = test: 48-hour IC50 by MTS, CEM acute lymphoblastic leukemia cells; type: cell-based, human
Experimental: as §1, §2

[1] = system: human cell lines (U-937, HeLa, A549, BT549, IMR90); test: Ability to induce cell death in the panel of five human cell lines (Table 3); type: cell-based; conditions: for activity (ability to induce cell death) in words: 48-hour exposure, 1 nM to 10 μM, cell lines of Table 3; for reduction in anticancer potency relative to the compared agelastatin: (−)-2 vs (−)-1, (−)-6 vs (−)-4, D (4) and E (5) vs A (1), Table 3 data
Experimental: Six (−)-agelastatins along with eight closely related derivatives prepared in the above examples were tested (Table 3). The six (−)-agelastatin alkaloids (1-6, respectively), (−)-O-methyl-di-epi-agelastatin A (50), (−)-dehydroagelastatin A (51), (−)-di-epi-agelastatin C (52), (+)-O-methyl-pre-agelastatin A and D (39 and 53, respectively), along with bicyclic pyrroles (+)-44, (+)-45, and triazone (+)-48 were tested for their ability to induce cell death in four human cancer cell lines (U-937, lymphoma; HeLa, cervical carcinoma; A549, non-small cell lung carcinoma; and BT549, breast carcinoma) and one immortalized normal human cell line (IMR90, lung fibroblasts) after a 48-hour exposure. […] Furthermore, enhanced activities in U-937 (20×) cell relative to the other cell lines (Table 3) were observed.
(§3) Adherent cells (HeLa, A549, BT549, and IMR90) were added into 96-well plates (5,000 cells/well for HeLa cell line; 2,000 cells/well for A549, BT549, and IMR90 cell lines) in 100 μL media and were allowed to adhere for 2-3 hours. Compounds were solubilized in DMSO as 100× stocks, added directly to the cells (100 μL final volume), and tested over a range of concentrations (1 nM to 10 μM) in triplicate (1% DMSO final) on a half-log scale. DMSO and cell-free wells served as the live and dead control, respectively. After 48 h of continuous exposure, the plates were evaluated using the SRB colorimetric assay as described previously (V. Vichai, K. Kirtikara, Nature Prot., 2006, 1, 1112). Briefly, media was removed from the plate, and cells were fixed by the addition of 100 μL cold 10% trichloroacetic acid in water. After incubating at 4° C. for 1 h, the plates were washed in water and allowed to dry. Sulforhordamine B was added as a 0.057% solution in 1% acetic acid (100 μL), and the plates were incubated at room temperature for 30 min, washed in 1% acetic acid, and allowed to dry. The dye was solubilized by adding 10 mM Tris base solution (pH 10.5, 200 μL) and incubating at room temperature for 30 min Plates were read at λ=510 nm. IC50 values were determined from three or more independent experiments using TableCurve (San Jose, Calif.).
In a 96-well plate, compounds were pre-added as DMSO stocks (1% final) in triplicate to achieve final concentrations of 1 nM to 10 μM on a half log scale. DMSO and cell-free wells served as the live and dead control, respectively. Suspension cells (U-937, CEM, CA46, Daudi, HL-60, and Jurkat; 10,000 cells/well) cells were distributed in 100 μL media to the compound-containing plate. After 48 h, cell viability was assessed by adding 20 μL of a PMS/MTS solution (A. H. Cory, T. C. Owen, J. A. Barltrop, J. G. Cory, Cancer Commun., 1991, 3, 207) to each well, allowing the dye to develop at 37° C. until the live control had processed MTS, and reading the absorbance at λ=490 nm. IC50 values were determined from three or more independent experiments using TableCurve (San Jose, Calif.).

CA46 = test: 48-hour IC50 by MTS, CA46 Burkitt's lymphoma cells; type: cell-based, human
Experimental: as §1, §2

A549 = test: 48-hour IC50 by SRB, A549 non-small cell lung carcinoma cells; type: cell-based, human
Experimental: as §1
as §3, with “After 48 h of continuous exposure, the plates were evaluated using the SRB colorimetric assay as described previously (V. Vichai, K. Kirtikara, Nature Prot., 2006, 1, 1112).” left out, “The dye was solubilized by adding 10 mM Tris base solution (pH 10.5, 200 μL) and incubating at room temperature for 30 min Plates were read at λ=510 nm.” left out

BT549 = test: 48-hour IC50 by SRB, BT549 breast carcinoma cells; type: cell-based, human
Experimental: as §1
as §3, with “After 48 h of continuous exposure, the plates were evaluated using the SRB colorimetric assay as described previously (V. Vichai, K. Kirtikara, Nature Prot., 2006, 1, 1112).” left out, “The dye was solubilized by adding 10 mM Tris base solution (pH 10.5, 200 μL) and incubating at room temperature for 30 min Plates were read at λ=510 nm.” left out

HeLa = test: 48-hour IC50 by SRB, HeLa cervical carcinoma cells; type: cell-based, human
Experimental: as §1
as §3, with “After 48 h of continuous exposure, the plates were evaluated using the SRB colorimetric assay as described previously (V. Vichai, K. Kirtikara, Nature Prot., 2006, 1, 1112).” left out, “The dye was solubilized by adding 10 mM Tris base solution (pH 10.5, 200 μL) and incubating at room temperature for 30 min Plates were read at λ=510 nm.” left out

Daudi = test: 48-hour IC50 by MTS, Daudi Burkitt's lymphoma cells; type: cell-based, human
Experimental: as §1, §2

IMR90 = test: 48-hour IC50 by SRB, IMR90  lung fibroblasts; type: cell-based, human
Experimental: as §1
as §3, with “After 48 h of continuous exposure, the plates were evaluated using the SRB colorimetric assay as described previously (V. Vichai, K. Kirtikara, Nature Prot., 2006, 1, 1112).” left out, “The dye was solubilized by adding 10 mM Tris base solution (pH 10.5, 200 μL) and incubating at room temperature for 30 min Plates were read at λ=510 nm.” left out

HL-60 = test: 48-hour IC50 by MTS, HL-60 acute promyelocytic leukemia cells; type: cell-based, human
Experimental: as §1, §2

Jurkat = test: 48-hour IC50 by MTS, Jurkat acute T-cell leukemia cells; type: cell-based, human
Experimental: as §1, §2

U-937 cells = test: Apoptosis in U-937 cells with Annexin V-FITC and propidium iodide; type: cell-based, human; conditions: 21 hours, flow cytometry
Experimental: FIG. 3. […] Analysis of phosphatidylserine exposure and propidium iodide inclusion at 21 hours in U-937 cells. Compounds were tested at indicated concentrations and STS was used as a positive control for apoptosis. Samples were analyzed by flow cytometry for the relative timing of phosphatidylserine exposure relative to PI inclusion. FITC=fluorescein isothiocyanate; PI=propidium iodide; STS=staurosporine.
DMSO stocks of compounds were added to a 24-well plate in singlicate (0.2% DMSO final). […] Following treatment, the cell suspensions were transferred to flow cytometry tubes and pelleted (500 g, 3 min). The media was removed by aspiration, and cells were resuspended in 200 μL AnnV binding buffer (10 mM HEPES, pH 7.4, 140 mM NaCl, 2.5 mM CaCl2) with 5 μg/mL PI and 1:90 dilution of AnnV. Samples were analyzed using flow cytometry.

[2] = system: procaspase-3 and PARP-1 cleavage; test: Western blot analysis of procaspase-3 and PARP-1 cleavage in U-937 cells; type: cell-based, human; conditions: 24 hours
Experimental: FIG. 2. […] Western blot analysis of procaspase-3 and PARP-1 cleavage at 24 hours in U-937 cells using β-actin as loading control. Compounds were tested at indicated concentrations and STS (10 nM); C3=caspase-3; PARP=poly(ADP-ribose) polymerase 1; PC3=procaspase-3; STS=staurosporine.

synchronized U-937 cells = test: Cell cycle arrest in thymidine-synchronized U-937 cells; type: cell-based, human; conditions: 16 hours, PI, flow cytometry
Experimental: Samples were fixed, treated with an RNAse, stained with PI, and analyzed by flow cytometry. Taxol, a microtubule stabilizer, was used as a positive control. Error bars represent standard deviation of the mean, n=3. * p<0.01. PI=propidium iodide.
U-937 cells were split to 50% confluency (250,000 cells/mL) and treated with 2 mM thymidine for 10 hours. The cells were then pelleted (500 g, 3 minutes) and washed with PBS before being resuspended in thymidine-free media and allowed to recover for 13 hours. The cells were then re-blocked with 2 mM thymidine for 10 hours, and then washed with PBS as before and resuspended in media (250,000 cells/mL).
DMSO stocks of compounds were added to a 24-well plate in triplicate (0.2% DMSO final), after which 1 mL of the prepared cell suspension was added. Following a 16 h incubation, the cell suspensions were transferred to 2 mL tubes and pelleted (600 g, 3 min). The media was removed by aspiration, and the cells were fixed with 0.5 mL of ice cold 70% ethanol with vortexing. The samples were fully fixed at −20° C. for 3 hours. The samples were then pelleted (1000 g, 5 min) and the supernatant was removed via aspiration. […] Prior to reading, the samples were taken up in 150 μL of 50 μg/mL propidium iodide in PBS and transferred to flow cytometry tubes. Samples were analyzed based on whole, single cells.

tubulin dynamics = test: Tubulin microscopy with HeLa cells; type: cell-based, human; conditions: 16 hours, confocal microscopy
Experimental: HeLa cells were treated with compound for 16 hours, fixed, stained, and visualized using confocal microscopy.
Round, 1.5 mm coverslips (No. 1.5) were sterilized with ultraviolet light and placed in a 12-well plate. HeLa cells (100,000 cells/well) were added and allowed to adhere for eight hours. Compounds were then added as DMSO stocks to achieve a final DMSO concentration of 1%, and the plates were returned to the incubator for 16 hours.
Following incubation, the media was removed, and the coverslips were fixed with 0.5 mL Microtubulin Stabilizing Buffer (MTSB, 80 mM PIPES, pH 6.8, 1 mM MgCl2, 5 mM EGTA, 0.5% TX-100)+0.5% glutaraldehyde for 10 minutes at room temperature, after which the fixative was removed and the sample was quenched with the addition of 0.5 mL of freshly-prepared 1 mg/mL NaBH4 in PBS. After a 5 min incubation, the solution was removed by aspiration and the coverslips were washed with PBS.
Coverslips were transferred to parafilm-lined culture dishes (cell-side up), and 40 μL of 50 μg/mL RNase A in Antibody Diluting Solution (AbDil, PBS, pH 7.4, 0.2% TX-100, 2% BSA, 0.1% NaN3) with 1:50 dilution of anti-α-tubulin-FITC antibody was added to all samples. The samples were allowed to incubate at room temperature in the dark for 2.5 hours, after which the coverslips were washed three times with PBS+0.1% TX-100. […]

[3] = IMR90 immortalized lung fibroblasts

Compound | IC50 (U-937) | IC50 (CEM) | activity (ability to induce cell death) in words [1] | IC50 (CA46) | IC50 (A549) | IC50 (BT549) | IC50 (HeLa) | IC50 (Daudi) | IC50 (IMR90; [3]) | IC50 (HL-60) | IC50 (Jurkat) | further results
(−)-agelastatin B [(−)-2] | 1.06 ± 0.16 µM | 0.29 ± 0.2 µM | relatively weaker activity | 1.07 ± 0.42 µM | > 10 µM | 4.8 ± 1.1 µM | 4.8 ± 1.2 µM | 0.46 ± 0.28 µM | > 10 µM | 2.4 ± 1 µM | 0.75 ± 0.44 µM | 
(−)-O-methyl-di-epi-agelastatin A [(−)-50] | > 10 µM |  | None |  | > 10 µM | > 10 µM | > 10 µM |  | > 10 µM |  |  | 
O=C1N[C@H]2[C@@H]3NC(=O)c4cc(Br)c(Br)n4[C@@H]3C[C@@]2(O)N1 [(−)-6, (−)-agelastatin F] | > 10 µM | > 10 µM | little activity at the concentrations examined | > 10 µM | > 10 µM | > 10 µM | > 10 µM | > 10 µM | > 10 µM | > 10 µM | > 10 µM | 
COC1NC(=O)c2ccc(Br)n2C1Cc1c[nH]c(=O)[nH]1 (single isomer, unassigned; (+)) [(+)-53, (+)-O-methyl-pre-agelastatin D] | > 10 µM |  | None |  | > 10 µM | > 10 µM | > 10 µM |  | > 10 µM |  |  | 
(−)-di-epi-agelastatin C [(−)-52] | > 10 µM |  | None |  | > 10 µM | > 10 µM | > 10 µM |  | > 10 µM |  |  | 
CO[C@@]12C[C@@H]3[C@@H](NC(=O)c4ccc(Br)n43)[C@@H]1NC(=O)N2C [(−)-5, (−)-agelastatin E] | 2.56 ± 0.13 µM | 0.83 ± 0.37 µM | relatively weaker activity | 2.45 ± 0.95 µM | > 10 µM | 6.9 ± 2.5 µM | 8.6 ± 0.81 µM | 1.41 ± 0.53 µM | > 10 µM | 4.6 ± 3.6 µM | 1.5 ± 0.33 µM | reduction in anticancer potency relative to the compared agelastatin [1]: > 10 fold
(−)-dehydroagelastatin A [(−)-51] | > 10 µM |  | None |  | > 10 µM | > 10 µM | > 10 µM |  | > 10 µM |  |  | 
O=C1N[C@H]2[C@@H]3NC(=O)c4ccc(Br)n4[C@@H]3C[C@@]2(O)N1 [(−)-4, (−)-agelastatin D] | 0.24 ± 0.033 µM | 0.074 ± 0.025 µM |  | 0.46 ± 0.24 µM | 0.92 ± 0.16 µM | 0.631 ± 0.082 µM | 1 ± 0.2 µM | 0.202 ± 0.015 µM | 2.75 ± 0.6 µM | 0.54 ± 0.12 µM | 0.21 ± 0.063 µM | reduction in anticancer potency relative to the compared agelastatin [1]: 1-5 fold; apoptosis (phosphatidylserine exposure and propidium iodide inclusion) (U-937 cells): induced dose-dependent apoptosis; activation of procaspase-3 to active caspase-3 and cleavage of PARP-1 [2]: dose-dependent activation; G2/M cell cycle arrest (synchronized U-937 cells): dose-dependent G2/M cell cycle arrest; effect on tubulin dynamics (tubulin dynamics): do not affect tubulin dynamics
CN1C(=O)N[C@@]2(O)[C@@H]3NC(=O)c4ccc(Br)n4[C@@H]3C[C@@]12O [(−)-3, (−)-agelastatin C] | > 10 µM | 2.1 ± 1.3 µM |  | > 10 µM | > 10 µM | > 10 µM | > 10 µM | 7.2 ± 2.9 µM | > 10 µM | > 10 µM | 5.31 ± 0.35 µM | activity (ability to induce cell death) in words ([1]; listed as (−)-agelastatin C (3)): little activity at the concentrations examined; also recorded: abolishes activity
CO[C@H]1NC(=O)c2ccc(Br)n2[C@@H]1Cc1c[nH]c(=O)n1C [(+)-39, (+)-O-methyl-pre-agelastatin A] |  |  | None |  |  |  |  |  |  |  |  | IC50 (U-937; Homo sapiens): > 10 µM; IC50 (A549; Homo sapiens): > 10 µM; IC50 (BT549; Homo sapiens, BT-549): > 10 µM; IC50 (HeLa; Homo sapiens): > 10 µM; IC50 (IMR90; Homo sapiens, IMR-90, IMR90 immortalized lung fibroblasts): > 10 µM
